In patent publication US10035760B2, “Inhibitors of human immunodeficiency virus replication” (priority 2013, dated 2018):
pEC50: −log10 of the molar value. Like-named read-outs stand apart in the source and are kept apart here.

System: recombinant NL4-3 virus (Renilla luciferase) in MT-2 cells
Assay: HIV cell culture assay (antiviral activity, luciferase readout in infected MT-2 cells)
Assay type: cell-based
Settings: Renilla
Outline: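 Nef-deleted NL4-3 carrying Renilla luciferase, produced by 293T transfection, used to infect MT-2 cells for 4–5 days with serial compound dilutions. Live-cell luciferase signal read as infection marker; EC50 from exponential median-effect equation.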

[1] = NL43, read-out: Activity, antiviral activity class, recombinant NL4-3 Renilla luciferase virus in MT-2 cells
[2] = NL43, recombinant NL4-3 Renilla luciferase virus in MT-2 cells

| Compound | pEC50 [1] | pEC50 [2] |
| --- | --- | --- |
| Cc1ccccc1S(=O)(=O)NC(=O)N[C@@H](Cc1cc(F)c(F)cc1F)C(=O)N(C)c1ccc2c(c1)OCO2 [Example 75, (S)—N-(benzo[d][1,3]dioxol-5-yl)-N-methyl-2-(3-(o-tolylsulfonyl)ureido)-3-(2,4,5-trifluorophenyl)propanamide] | 6.00 to 7.00 | 6.54 |
| CCN(C(=O)[C@H](Cc1ccccc1)NC(=O)NS(=O)(=O)c1ccccc1C)c1ccc2nc(C)ccc2c1 [Example CA-83, (S)—N-ethyl-N-(2-methylquinolin-6-yl)-3-phenyl-2-(3-(o-tolylsulfonyl)ureido)propanamide] | > 7.00 |  |
| Cc1cccc(N(C)C(=O)[C@H](Cc2ccccc2)NC(=O)NS(=O)(=O)c2ccccc2C)c1 [Example 163, (S)—N-methyl-3-phenyl-N-(m-tolyl)-2-(3-(o-tolylsulfonyl)ureido)propanamide] | 6.00 to 7.00 |  |
| COc1ccc2c(c1)CCCN2C(=O)[C@H](Cc1ccccc1)NC(=O)NS(=O)(=O)c1ccccc1C [Example 171, (S)—N-((1-(6-methoxy-3,4-dihydroquinolin-1(2H)-yl)-1-oxo-3-phenylpropan-2-yl)carbamoyl)-2-methylbenzenesulfonamide] | 6.00 to 7.00 |  |
| COc1ccccc1N(C)C(=O)[C@H](Cc1ccccc1)NC(=O)NS(=O)(=O)c1ccccc1C [Example 165, (S)—N-(2-methoxyphenyl)-N-methyl-3-phenyl-2-(3-(o-tolylsulfonyl)ureido)propanamide] | 5.00 to 6.00 |  |
| CCN(C(=O)[C@H](Cc1ccccc1)NC(=O)NS(=O)(=O)c1cccc(-c2cnoc2)c1C)c1ccc(OC)cc1 [Example 159, (S)—N-ethyl-2-(3-((3-(isoxazol-4-yl)-2-methylphenyl)sulfonyl)ureido)-N-(4-methoxyphenyl)-3-phenylpropanamide] | 6.00 to 7.00 |  |
| CCN(C(=O)[C@H](Cc1ccccc1)NC(=O)NS(=O)(=O)c1ccccc1C)c1ccc(Cl)c(C(F)(F)F)c1 [Example 182, (S)—N-(4-chloro-3-(trifluoromethyl)phenyl)-N-ethyl-3-phenyl-2-(3-(o-tolylsulfonyl)ureido)propanamide] | 6.00 to 7.00 |  |
| COc1ccc(C[C@H](NC(=O)NS(=O)(=O)c2ccccc2C)C(=O)N(C)c2ccc3c(c2)OCO3)cc1 [Example 56, (S)—N-(benzo[d][1,3]dioxol-5-yl)-3-(4-methoxyphenyl)-N-methyl-2-(3-(o-tolylsulfonyl)ureido)propanamide] | 5.00 to 6.00 |  |
| CCN(C(=O)[C@H](Cc1ccccc1)NC(=O)NS(=O)(=O)c1cccc(-c2ccco2)c1)c1ccc(OC)cc1 [Example 149] | 6.00 to 7.00 |  |
| Cc1ccccc1S(=O)(=O)NC(=O)N[C@@H](Cc1ccccc1)C(=O)N1CCc2ccccc21 [Example 174, (S)—N-((1-(indolin-1-yl)-1-oxo-3-phenylpropan-2-yl)carbamoyl)-2-methylbenzenesulfonamide] | 5.00 to 6.00 | 5.42 |
| Cc1ccccc1S(=O)(=O)NC(=O)N[C@@H](Cc1ccccc1)C(=O)N(C)c1ccc(F)c(C(N)=O)c1 [Example CA-100, (S)-2-fluoro-5-(N-methyl-3-phenyl-2-(3-(o-tolylsulfonyl)ureido)propanamido)benzamide] | 5.00 to 6.00 |  |
| Cc1ccccc1S(=O)(=O)NC(=O)N[C@@H](Cc1cc(F)cc(F)c1)C(=O)N(C)c1ccc2cccnc2c1 [Example CA-104, (S)-3-(3,5-difluorophenyl)-N-methyl-N-(quinolin-7-yl)-2-(3-(o-tolylsulfonyl)ureido)propanamide] | 6.00 to 7.00 |  |
| CN(C(=O)[C@H](Cc1ccccc1)NC(=O)NS(=O)(=O)Cc1ccc(C(F)(F)F)cc1)c1ccc2c(c1)OCO2 [Example 105, (S)—N-(benzo[d][1,3]dioxol-5-yl)-N-methyl-3-phenyl-2-(3-((4-(trifluoromethyl)benzyl)sulfonyl)ureido)propanamide] | 6.00 to 7.00 |  |
| COc1ccccc1N(C)C(=O)[C@H](Cc1ccccc1)NC(=O)NS(=O)(=O)c1ccccc1 [Example 95, (S)—N-(2-methoxyphenyl)-N-methyl-3-phenyl-2-(3 (phenylsulfonyl)ureido)-propanamide] | 5.00 to 6.00 |  |
| CCN(C(=O)[C@H](Cc1ccccc1)NC(=O)NS(=O)(=O)c1cccc(-c2ccoc2)c1C)c1ccc(OC)cc1 [Example 122, (S)—N-ethyl-2-(3-((3-(furan-3-yl)-2-methylphenyl)sulfonyl)ureido)-N-(4-methoxyphenyl)-3-phenylpropanamide] | 6.00 to 7.00 |  |
| Cc1ccccc1S(=O)(=O)NC(=O)N[C@@H](Cc1ccccc1)C(=O)N(C)c1ccc(C#N)cc1 [Example CA-97, (S)—N-(4-cyanophenyl)-N-methyl-3-phenyl-2-(3-(o-tolylsulfonyl)ureido)propanamide] | 6.00 to 7.00 |  |
| Cc1ccccc1S(=O)(=O)NC(=O)N[C@@H](Cc1cc(F)cc(F)c1)C(=O)N(C)c1ccc2c(c1)OCO2 [Example 67, (S)—N-(benzo[d][1,3]dioxol-5-yl)-3-(3,5-difluorophenyl)-N-methyl-2-(3-(o-tolylsulfonyl)ureido)propanamide] | 6.00 to 7.00 |  |
| C/C=C\c1ccccc1S(=O)(=O)NC(=O)N[C@@H](Cc1ccccc1)C(=O)N(C)c1ccc2c(c1)OCO2 [Example 137, (S,Z)—N-(benzo[d][1,3]dioxol-5-yl)-N-methyl-3-phenyl-2-(3-((2-(prop-1-en-1-yl)phenyl)sulfonyl)ureido)propanamide] | 6.00 to 7.00 |  |
| Cc1ccccc1S(=O)(=O)NC(=O)N[C@@H](Cc1cccc(C(F)(F)F)c1)C(=O)N(C)c1ccc2c(c1)OCO2 [Example 71, (S)—N-(benzo[d][1,3]dioxol-5-yl)-N-methyl-2-(3-(o-tolylsulfonyl)ureido)-3-(3-(trifluoromethyl)phenyl)propanamide] | 6.00 to 7.00 |  |
| Cc1ccccc1S(=O)(=O)NC(=O)N[C@@H](Cc1ccccc1)C(=O)N(C)c1ccc2c(c1)OC(F)(F)O2 [Example 37, (S)—N-(2,2-difluorobenzo[d][1,3]dioxol-5-yl)-N-methyl-3-phenyl-2-(3-(o-tolylsulfonyl)ureido)propanamide] | 6.00 to 7.00 |  |
| CC(C)c1ccccc1S(=O)(=O)NC(=O)N[C@@H](Cc1ccccc1)C(=O)N(C)c1ccc2c(c1)OCO2 [Example 135, (S)—N-(benzo[d][1,3]dioxol-5-yl)-2-(3-((2-isopropylphenyl)sulfonyl)ureido)-N-methyl-3-phenylpropanamide] | 6.00 to 7.00 |  |
| Cc1ccccc1S(=O)(=O)NC(=O)N[C@@H](Cc1ccccc1)C(=O)N(C)c1cccc(C#N)c1 [Example CA-91, (S)—N-(3-cyanophenyl)-N-methyl-3-phenyl-2-(3-(o-tolylsulfonyl)ureido)propanamide] | 6.00 to 7.00 |  |
| CCOc1ccc(N(C)C(=O)[C@H](Cc2ccccc2)NC(=O)NS(=O)(=O)c2ccccc2C)cc1 [Example CA-84, (S)—N-(4-ethoxyphenyl)-N-methyl-3-phenyl-2-(3-(o-tolylsulfonyl)ureido)propanamide] | > 7.00 |  |
| Cc1ccccc1S(=O)(=O)NC(=O)N[C@@H](Cc1ccccc1)C(=O)N(C)c1ccc2c(c1)CCO2 [Example CA-76, (S)—N-(2,3-dihydrobenzofuran-5-yl)-N-methyl-3-phenyl-2-(3-(o-tolylsulfonyl)ureido)propanamide] | > 7.00 |  |
| CCCN(C(=O)[C@H](Cc1ccccc1)NC(=O)NS(=O)(=O)c1ccccc1C)c1ccc(Cl)c(Cl)c1 [Example 183, (S)—N-(3,4-dichlorophenyl)-3-phenyl-N-propyl-2-(3-(o-tolylsulfonyl)ureido)propanamide] | 6.00 to 7.00 | 6.51 |
